Measurements reported in patent publication US12129265B2, “Therapeutic agents and uses thereof” (Ankh Life Sciences Limited, priority 2020, dated 2024).
pIC50: −log10 of the molar value.

Assays:
Assay in all cases: CellTiter-Glo in vitro cell proliferation assay, Example 8
Assay type in all cases: cell-based, Human
RPMI-8226 cells = details: RPMI-8226, HMM
Experimental: (§1) Each proliferation assay was carried out as follows. The test cells were plated in growth media using a 384-well microtiter plate at 50 μL volume. The cells were incubated for 24 hours at 37° C. in a humidified incubator. After 24 hours of incubation, the test compounds were added to the test wells in DSMO solvent, at concentrations ranging from 0.0075-100 μM. Control wells received equal volumes of DSMO, without compound. Following drugging, the cells were incubated for 72 hours at 37° C. in a humidified incubator. After this exposure, 100 μL of a 1:1 mixture of sterile water and CellTiter-Glo® reagent (Promega) was added to each well. The plates were then incubated for 60 minutes at room temperature, followed by recording the luminescence value of each well using a luminometer as a measure of cell proliferation.
In this example, different cell lines were subjected to in vitro cell proliferation assays as described in Example 8. In particular, the cell lines are identified in the following Table 17, and the tissue types were: Pancreatic; Endometrial; Triple-Negative Breast Cancer (TNBC); Non-Small-Cell Lung Carcinoma (NSCLC); Ovarian; Renal Cell Carcinoma (RCC); Cervical-Squamous Cell; […] (H&N-Squamous Cell); Germinal Center B Cell-Like Novo Diffuse Large B-Cell Lymphoma (GCB-DLBCL); Activated B-Cell—Diffuse Large B Cell Lymphoma (ABC-DLBCL); Human Myeloma; Human Myeloma Cell Line Lymphocyte-Like; Human Myeloma Cell Line Lymphocyte-Like Myeloma Pleural Effusion Infiltration; Human Multiple Myeloma; Plasma Cell Leukemia/Multiple Myeloma Epstein-Barr Nuclear Antigen-Negative (EBNA-Negative) and to Express mRNA for Proto-Oncogene B-Cell Lymphoma 2 (BCL2); Multiple Myeloma from Peripheral Blood Type IgD Lmabda.

OCI-LY3 cells = details: OCI-LY3, ABC-DLBCL; read-out: Mean IC50
Experimental: (§2) In this Example, in vitro cell proliferation assays were performed using: (1) Human Myeloma tumor cell lines; (2) Human Lymphoma tumor cell lines; (3) Solid Human tumor cell lines; and (4) Parental, Lenalidomide resistant and Bortezomib resistant Jeko-1 Mantle cell Lymphoma tumor cell lines. The compounds tested were three diharmaline compounds, namely the 518B562 (or simply 562), 560, and 561 compounds. In addition, a monoharmaline product designated as 518F014 was also tested. This monoharmaline product had the following structure:
as §1

MOLP-8 cells = details: MOLP-8, MM IgD; read-out: Mean IC50
Experimental: as §2, §1

BxPC-3 cells = details: BxPC-3, Pancreatic; read-out: Mean IC50
Experimental: as §2, §1

A498 cells = details: A498, RCC; read-out: Mean IC50
Experimental: as §2, §1

KMM-1 cells = details: KMM-1, HMCL-A; read-out: Mean IC50
Experimental: as §2, §1

L363 cells = details: L363, PCL/MM; read-out: Mean IC50
Experimental: as §2, §1

MDA-MB-468 cells = details: MDA-MB-468, TNBC; read-out: Mean IC50
Experimental: as §2, §1

HCC70 cells = details: HCC70, TNBC; read-out: Mean IC50
Experimental: as §2, §1

SiHA cells = details: Cervical - SC, read-out: Mean IC50
Experimental: as §2, §1

H1975 (EGFR mut) cells = details: NSCLC, read-out: Mean IC50
Experimental: as §2, §1

MIA PaCa-2 cells = details: MIA PaCa-2, Pancreatic; read-out: Mean IC50
Experimental: as §2, §1

H1650 (EGFR mut) cells = details: NSCLC, read-out: Mean IC50
Experimental: as §2, §1

HEC-1a cells = details: Endometrial, read-out: Mean IC50
Experimental: as §2, §1

KMS-34 cells = details: KMS-34, HMCL-B; read-out: Mean IC50
Experimental: as §2, §1

A2780 cells = details: A2780, Ovarian; read-out: Mean IC50
Experimental: as §2, §1

MDA-MB-231 cells = details: MDA-MB-231, TNBC; read-out: Mean IC50
Experimental: as §2, §1

AN3CA cells = details: Endometrial, read-out: Mean IC50
Experimental: as §2, §1

DOHH-2 cells = details: DoHH-2, GCB-DLBCL; read-out: Mean IC50
Experimental: as §2, §1

ASPC-1 cells = details: ASPC-1, Pancreatic; read-out: Mean IC50
Experimental: as §2, §1

FaDu cells = details: H&N - SC, read-out: Mean IC50
Experimental: as §2, §1

A2780CP cells = details: Ovarian, read-out: Mean IC50
Experimental: as §2, §1

JIM1 cells = details: JIM1, HMCL; read-out: Mean IC50
Experimental: as §2, §1

SMILES	pIC50 (RPMI-8226 cells)	pIC50 (OCI-LY3 cells)	pIC50 (MOLP-8 cells)	pIC50 (BxPC-3 cells)	pIC50 (A498 cells)	pIC50 (KMM-1 cells)	pIC50 (L363 cells)	pIC50 (MDA-MB-468 cells)	pIC50 (HCC70 cells)	pIC50 (SiHA cells)	pIC50 (H1975 (EGFR mut) cells)	pIC50 (MIA PaCa-2 cells)	pIC50 (H1650 (EGFR mut) cells)	pIC50 (HEC-1a cells)	pIC50 (KMS-34 cells)	pIC50 (A2780 cells)	pIC50 (MDA-MB-231 cells)	pIC50 (AN3CA cells)	pIC50 (DOHH-2 cells)	pIC50 (ASPC-1 cells)	further results
COc1cccc(C(CC2=NCCc3c2[nH]c2cc(OC)ccc32)CC2=NCCc3c2[nH]c2cc(OC)ccc32)c1 [compound 15]	5.53	5.20	5.50	5.37	4.82	5.13	5.18	5.17	4.93	4.91	4.92	5.44	5.02	4.88	5.46	5.07	5.17	5.46	5.30	5.26	pIC50 (FaDu cells): 5.18; pIC50 (A2780CP cells): 5.12; pIC50 (JIM1 cells): 5.20
COc1ccc2c3c([nH]c2c1)C(CC(CC1=NCCc2c1[nH]c1cc(OC)ccc21)c1ccc(OC)c(O)c1)=NCC3 [compound 7]	4.93	4.94	4.93	4.91	4.53	4.70	4.93	4.95	4.63	4.32	4.22	4.79	4.19	4.15	4.95	4.48	4.50	4.94	5.19	4.39	pIC50 (FaDu cells): 4.86; pIC50 (A2780CP cells): 4.47; pIC50 (JIM1 cells): 4.84
COc1ccc2c3c([nH]c2c1)C(CC(CC1=NCCc2c1[nH]c1cc(OC)ccc21)c1ccc(F)cc1)=NCC3 [compound 21]	5.45	5.31	5.43	5.45	4.93	5.19	5.29	5.17	4.96	4.94	4.94	5.36	5.09	4.93	5.42	5.12	5.23	5.41	5.44	5.29	pIC50 (FaDu cells): 5.20; pIC50 (A2780CP cells): 5.01; pIC50 (JIM1 cells): 5.26
COc1ccc2c3c([nH]c2c1)C(CC(CC1=NCCc2c1[nH]c1cc(OC)ccc21)c1cc(OC)c(O)c([N+](=O)[O-])c1)=NCC3 [compound 5]	4.71	4.91	4.84	4.67	4.64	4.69	4.65	4.83	4.82	4.43	4.55	4.70	4.63	4.57	4.76	4.62	4.62	4.94	5.03	4.80	pIC50 (FaDu cells): 4.65; pIC50 (A2780CP cells): 4.61; pIC50 (JIM1 cells): 4.75
COc1ccc2c3c([nH]c2c1)C(CC(CC1=NCCc2c1[nH]c1cc(OC)ccc21)c1ccc(F)c(Oc2ccccc2)c1)=NCC3 [compound 19]	4.98	4.69	5.01	4.44	4.05	4.59	4.43	4.31	4.29	4.12	4.26	4.44	4.25	4.35	4.51	4.66	4.38	4.64	4.99	4.34	pIC50 (FaDu cells): 4.35; pIC50 (A2780CP cells): 4.56; pIC50 (JIM1 cells): 4.37
COc1ccc2c3c([nH]c2c1)C(CC(CC1=NCCc2c1[nH]c1cc(OC)ccc21)c1cccc(F)c1)=NCC3 [compound 20]	5.90	5.41	5.64	5.65	4.95	5.44	5.41	5.29	5.20	5.17	5.19	5.57	5.35	4.96	5.49	5.43	5.33	5.73	5.73	5.44	pIC50 (FaDu cells): 5.39; pIC50 (A2780CP cells): 5.30; pIC50 (JIM1 cells): 5.37
CCOc1cc(C(CC2=NCCc3c2[nH]c2cc(OC)ccc32)CC2=NCCc3c2[nH]c2cc(OC)ccc32)ccc1O [compound 2]	5.07	5.18	5.28	5.10	4.78	5.03	5.20	5.00	4.67	4.77	4.71	5.12	4.67	4.67	5.03	4.77	4.84	5.17	5.44	4.82	pIC50 (FaDu cells): 4.87; pIC50 (A2780CP cells): 4.69; pIC50 (JIM1 cells): 4.94
COc1ccc2c3c([nH]c2c1)C(CC(CC1=NCCc2c1[nH]c1cc(OC)ccc21)C1CCCCC1)=NCC3 [compound 30]	5.37	5.14	5.57	5.11	4.77	5.24	5.25	5.13	4.73	4.75	4.94	5.26	4.78	5.00	5.32	5.19	4.96	5.30	5.27	4.96	pIC50 (FaDu cells): 5.17; pIC50 (A2780CP cells): 5.07; pIC50 (JIM1 cells): 5.15
COc1ccc2c3c([nH]c2c1)C(CC(CC1=NCCc2c1[nH]c1cc(OC)ccc21)c1ccc(OC)c(OC)c1)=NCC3 [compound 4]	5.39	5.25	5.30	5.22	4.90	5.20	5.20	5.20	4.94	4.77	4.85	5.36	4.87	4.79	5.32	4.94	4.92	5.29	5.50	4.96	pIC50 (FaDu cells): 5.11; pIC50 (A2780CP cells): 4.97; pIC50 (JIM1 cells): 5.16
